Results as given in US20180213771A1, “COMPOSITION, METHOD FOR PRODUCING COMPOSITION, AND PESTICIDE COMPOSITION” (Sumitomo Chemical Company, Limited, priority 2015, published 2018).

Test: Water solubility of the agrochemical active compound alone at 25° C.
Type: physicochemical

| Compound | water solubility |
| --- | --- |
| CC1CC(C)(C)c2cccc(NC(=O)c3cn(C)nc3C(F)F)c21 (centres unmarked) [agrochemical active compound A, N-(1,1,3-trimethylindan-4-yl)-1-methyl-3-difluoromethylpyrazole-4-carboxylic acid amide] | about 20 ppm |
| Cc1cccc(-n2nnn(C)c2=O)c1COc1ccn(-c2ccc(Cl)cc2)n1 [agrochemical active compound C, 1-[2-({[1-(4-Chlorophenyl)-H-pyrazol-3-yl]oxy}methyl)-3-methylphenyl]-4-methyl-5-oxo-4,5-dihydro-1H-tetrazole] | about 0.03 ppm |
| CCNc1nc(CC)c(C(=O)NC(C#N)c2cccs2)s1 (centres unmarked) [ethaboxam, reference compound] | about 5 ppm |
| CCS(=O)(=O)c1cccnc1-c1nc2cc(S(=O)(=O)C(F)(F)F)ccc2o1 [agrochemical active compound B, 2-[3-(Ethanesulfonyl)pyridin-2-yl]-5-(trifluoromethanesulfonyl)benzoxazole] | about 6 ppm |
| C#CCN1C(=O)COc2cc(F)c(N3C(=O)C4=C(CCCC4)C3=O)cc21 [flumioxazin, reference compound] | about 2 ppm |
